Format in all cases: cell-based
For test [1], the system named is U2OS (EJ5-GFP) cells. Briefly: EJ5-GFP NHEJ reporter assay. The note with it: 2.5 μM/L for 6 h, TRDMT1 wild type cells. The protocol:
(§1) FIGS. 6A-6E show TRDMT1 Inhibitors specifically sensitizes cells to DNA damage agents. (FIG. 6A) SCE WT cells were transfected with TA-KR and were cultured with 2.5 μM/L, compound YW-1842 or not for 6 hours, m^5C (n=3, 50 cells per replicated, Mean±SD) was stained and quantified. DR-GFP (FIG. 6B) or EJ5-GFP (FIG. 6C) cells were pre-treated with 2.5 μM/L, compound YW-1842 for 6 h or TRDMT1 siRNA for 48 h, or DMSO. Then the cells were transfected with NLS-I-SceI plasmid to induce DSB. The efficiency of HR (FIG. 6B) or NHEJ (FIG. 6C) was analyzed by flow-cytometry (n=3, Mean±SD). (FIG. 6D) After seeding, MCF-7, HCC1954, and HCC1937 cells were pre-treated with or without 2.5 μM/L compound YW-1842 for 6 h, then cultured with chemotherapy drugs (1 μM/L, Cisplatin; 1 μM/L ATRi AZ20; 10 μM/L, ATMi KU55933; 1 μM/L, PARPi Olaparib for 10 days. The survival rate of these cells was analyzed (n=3, Mean±SD). (FIG. 6E) TRDMT1 KO U2OS cells were transfected with GFP-TRDMT1^WT or GFP-TRDMT1^G155V with or without 2.5 μM/L, compound YW-1842, the survival rate of these cells after IR or Cisplatin was shown (n=3, Mean±SD).
(§2) Using a previously described method[Lan, L. et al. The ACF1 complex is required for DNA double-strand break repair in human cells. […] The GFP signal arising from the recombination (HR) or non-homologous end joining (NHEJ) events were measured by flow cytometry.
For orientation: Reporter assays use an easily measured gene product as a stand-in for the process of interest.

For test [2], the system named is U2OS or MCF7 cells. Briefly: Cell survival of U2OS or MCF7 cells treated with YW-1842 alone. The protocol: FIGS. 6F-6G show TRDMT1 inhibitor YW-1842 delays the repair of DSBs at the transcribed genome. (FIG. 6F) U2OS or MCF7 cells were treated with or without compound YW-1842 at the indicated concentration. The survival rate of these cells was shown (n=3, Mean±SD). (FIG. 6G) SCE WT cells were transfected with TA-KR and were cultured with 2.5 μM YW-1842 or not for 6 hours, γ-H2AX (n=3, 50 cells per replicated, Mean±SD) were stained and quantified.
(§3) Approximately 500 U2OS/TRDMT1 KO U2OS/MCF-7/HCC1954/HCC1937 cells and TRDMT1 siRNA or GFP-TRDMT1 WT/G155V/K251R transfected cells were seeded in 6 cm dish with or without TRDMT1 inhibitors (2.5 μM/L). 6 hrs after seeding, cells were exposed to cisplatin (1134357, Sigma, 1 μM/L), ATMi (KU55933, C9867, Sigma, 10 μM/L), ATRi (AZ20, S7050, Selleck, 1 μM/L) or PARPi (Olaparib, AZD2461, Sigma, 1 μM/L) at indicated concentration or ionizing radiation (IR). After 7-14 days, colonies were fixed and stained with 0.3% crystal violet in methanol, and the number of colonies was counted manually.

Test [3] relates to cancer cell lines (HST578, MBAMD231, HCC1937, HCC1954). Briefly: Cell survival (colony) assay with TRDMT1i alone, Example 19. The protocol:
FIGS. 14A-14C show TRDMT1i alone reduce cancer cell survival in a dose-dependent manner. (FIG. 14A) Survival rate of HR proficient (HR+) HST578 cancer cells with and without siBRCA1 and/or TRDMT1i YW-1842 at indicated dose. The survival rate of these cells was analyzed (n=3, Mean±SD). (FIG. 14B) Survival rate of MBAMD231 (HR+) and HCC1937 (HRD) cells. The survival rate of these cells was analyzed (n=3, Mean±SD). (FIG. 14C) Cell survival rate in different cancer cell lines via colony-forming assay with the treatment of Imatinib at indicated dose (n=3, mean+/−S.D.). Cell lines are listed in order with the expression level from SYCP2high to SYCP2low.
HCC1500, HCC1954, BT549, MCF7 and MDAMB468 were cultured in Roswell Park Memorial Institute (RPMI) 1640 Medium (Sigma, R8758) with 10% (vol/vol) fetal bovine serum (FBS, XY Cell Culture, FBS-500) at 37° C., 5% CO2. siBRCA1 (L-003461-00, Dharmacon) was transfected with Lipofectamine RNAiMax (Invitrogen; Carlsbad, CA, USA). PARPi Olaparib (AZD2281/Ku-0059436, Sellekchem, S1060) and Pol theta inhibitor Novobiocin (Sigma) were used.
Cells were seeded in each 6-cm dish and cultured as described above. They were treated with drugs with indicated dose in medium after seeding. After 7-10 days, colonies were fixed and stained with 0.3% crystal violet in methanol, and the number of colonies was counted manually.

Test [4] has as its system U2OS (DR-GFP) cells. Briefly: DR-GFP HR reporter assay. The note with it: 2.5 μM/L for 6 h, in comparison with DMSO treated group. The protocol: as §1, §2
The test system of test [5] is MCF-7, HCC1954, and HCC1937 cells. Briefly: Cell survival assay, YW-1842 combined with DNA damaging agents, IR or H2O2. The protocol:
as §1
MCF-7, HCC1954, and HCC1937 cells were pre-treated with or without TRDMT1 inhibitor YW-1842 (2.5 μM) for 6 hrs, then the cells were exposed to IR or H2O2, and cultured for 7-14 days. The survival rate of these cells was analyzed (n=3, Mean±SD)
as §3

SMILES strings stand for the structures.

For the compound `COc1cc2nc(-n3cc(-c4ccc(S(C)(=O)=O)cc4)cn3)nc(-c3ccsc3)c2cc1OC` [YW-1842, 6,7-dimethoxy-2-(4-(4-(methylsulfonyl)phenyl)-1H-pyrazol-1-yl)-4-(thiophen-3-yl)quinazoline], the “non-homologous end joining (NHEJ) efficiency” value in test [1] is given as “no obvious changes”. The “cell killing by compound alone” value in test [2] (2.5 μM/L) is on record as “does not kill cells alone”. Besides, in test [2] (concentration below 5 μM/L), the “antiproliferative effect (cell proliferation)” value was “did not prohibit cell proliferation”. Besides, the “cell killing of HCC1954” value in test [3] (HCC1954 (HRD, high SYCP2)) is recorded as “efficiently killed HCC1954”. Moreover, the “cell survival, TRDMT1i alone” value in test [3] (HR-proficient HST578 cells) was “kills HR-proficient cancer cells HST578 in a dose-dependent manner”. In addition, the “TRDMT1i sensitivity with BRCA1 knockdown” value in test [3] (HST578 cells with siBRCA1) is “significantly increased”. Besides, the “cell killing across cancer cell lines by SYCP2 level and HR status” value in test [3] (cell lines ordered SYCP2high to SYCP2low) was “killed SYCP2-high cancer cell lines and HR deficient cells the most efficiently”. In addition, the “HR-mediated repair of I-SceI-generated DSBs” value in test [4] is on record as “diminished the repair of I-SceI-generated DSBs”. In addition, the “survival rate in combination with H2O2 compared to DMSO” value in test [5] (2.5 μM, combined with H2O2) was “decreased the survival rate of all the three cell lines”. Moreover, the “sensitivity to IR in combination” value in test [5] (2.5 μM, combined with IR) was “clear sensitivity enhancement”. Further, in test [5] (2.5 μM/L pre-treatment 6 h), the “sensitization to DNA damaging agents (Cisplatin, ATRi AZ20, ATMi KU55933, PARPi Olaparib) compared to single treatment” value is “sensitizes the cells”. Also, in test [5] (YW-1842 2.5 μM, Olaparib 1 μM, HCC 1954 cell lines), the “synergy with PARPi Olaparib” value was “strong synergy”.

Source of the values: patent publication US12496302B2, “Compositions and methods for the treatment and diagnosis of cancer” (The General Hospital Corporation, priority 2020, dated 2025).
